Test results as given in ChEMBL document CHEMBL5038658, “Structure-Activity Relationship of 3-Methylcytidine-5'-α,β-methylenediphosphates as CD73 Inhibitors” (J Med Chem, 2022).
pKi: −log10 of the molar value. The source made the active and inactive calls. The calls are words filed in the database; no cut-off is given here.

Legend:
[1] = target: T1, 5'-nucleotidase (Homo sapiens, UniProt P21589); test: Inhibition of human soluble CD73 assessed as inhibition constant
[2] = target: T1, 5'-nucleotidase; test: Inhibition of 5'-Nucleotidase activity in human HN-SCC cells assessed as reduction in tumor CD73 catalytic activity incubated for 45 mins in presence of Pb(NO3)2 by […] based assay; format: cell-based; details: dose 50-250 nM
[3] = target: T1, 5'-nucleotidase; test: Inhibition of 5'-Nucleotidase activity in human tonsils assessed as reduction in CD73 catalytic activity in tonsils incubated for 45 mins in presence of Pb(NO3)2 by […] based assay; format: tissue-based; details: Tonsil, dose 50-250 nM
[4] = target: T1, 5'-nucleotidase; test: Inhibition of human soluble CD73 at 0.03 to 50000 nM relative to control; details: dose 0.03-50000 nM

T1 sequence (P21589 whole entry): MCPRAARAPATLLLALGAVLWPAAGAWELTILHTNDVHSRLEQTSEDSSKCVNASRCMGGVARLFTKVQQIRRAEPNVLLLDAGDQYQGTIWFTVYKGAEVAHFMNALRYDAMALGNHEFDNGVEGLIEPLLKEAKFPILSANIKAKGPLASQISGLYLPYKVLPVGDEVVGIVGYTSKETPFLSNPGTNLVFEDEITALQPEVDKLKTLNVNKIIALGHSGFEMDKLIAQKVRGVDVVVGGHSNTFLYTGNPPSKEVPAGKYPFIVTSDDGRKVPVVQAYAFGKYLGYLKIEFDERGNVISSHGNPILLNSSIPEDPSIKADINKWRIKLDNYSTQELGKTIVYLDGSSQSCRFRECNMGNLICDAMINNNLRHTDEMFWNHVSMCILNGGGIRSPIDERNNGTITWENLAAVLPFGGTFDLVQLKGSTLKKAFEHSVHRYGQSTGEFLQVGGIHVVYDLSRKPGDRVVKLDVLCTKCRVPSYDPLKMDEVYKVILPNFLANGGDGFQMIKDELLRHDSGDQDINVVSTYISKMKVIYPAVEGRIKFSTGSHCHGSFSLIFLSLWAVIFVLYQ

| Compound | pKi [1] | other results |
| --- | --- | --- |
| Cn1c(=O)n([C@H]2[C@H](O)[C@H](O)[C@]3(COP(=O)(O)CP(=O)(O)O)C[C@H]23)cc/c1=N/OCc1ccc(Cl)cc1 | 7.23 |  |
| Nc1ncnc2c1ncn2[C@@H]1O[C@H](COP(=O)(O)CP(=O)(O)O)[C@@H](O)[C@H]1O |  | inhibition [2]: inactive; inhibition [3]: inactive |
| O=c1[nH]c(=O)n([C@@H]2O[C@H](COP(=O)(O)CP(=O)(O)O)[C@@H](O)[C@H]2O)cc1F | 5.60 |  |
| O=c1ccn([C@H]2[C@H](O)[C@H](O)[C@]3(COP(=O)(O)CP(=O)(O)O)C[C@H]23)c(=O)[nH]1 | < 4.30 | inhibition [4]: 28% |
| CCOC(=O)CCNC(=O)c1ccc(CO/N=c2/ccn([C@@H]3O[C@H](COP(=O)(O)CP(=O)(O)O)[C@@H](O)[C@H]3O)c(=O)n2C)cc1 | 8.60 |  |
| Cn1c(=O)n([C@@H]2O[C@H](COP(=O)(O)CP(=O)(O)O)[C@@H](O)[C@H]2O)cc/c1=N/OCc1cccc(C(F)(F)F)c1 | 8.90 |  |
| Cn1c(=O)n([C@@H]2O[C@H](COP(=O)(O)CP(=O)(O)O)[C@@H](O)[C@H]2O)cc/c1=N/C(=O)NCc1ccccc1 | 7.15 |  |
| Cn1c(=O)n([C@@H]2O[C@H](COP(=O)(O)CP(=O)(O)O)[C@@H](O)[C@H]2O)cc/c1=N/OCc1ccccc1Cl | 8.79 |  |
| Cn1c(=O)n([C@@H]2O[C@H](COP(=O)(O)CP(=O)(O)O)[C@@H](O)[C@H]2O)cc/c1=N/OCc1ccc(C(=O)NCCCCN)cc1 | 8.75 |  |
| Cn1c(=O)n([C@@H]2O[C@H](COP(=O)(O)CP(=O)(O)O)[C@@H](O)[C@H]2O)cc/c1=N/OCc1ccc(C(=O)NCCC(=O)O)cc1 | 8.58 |  |
| Cn1c(=O)n([C@@H]2O[C@H](COP(=O)(O)CP(=O)(O)O)[C@@H](O)[C@H]2O)cc/c1=N/OCc1ccc(C(=O)NCCN)cc1 | 9.20 |  |

More lines, main results first:

| pKi [1] | Compound | other results |
| --- | --- | --- |
| 8.46 | CCc1ccc(CO/N=c2/ccn([C@@H]3O[C@H](COP(=O)(O)CP(=O)(O)O)[C@@H](O)[C@H]3O)c(=O)n2C)cc1 |  |
| 8.75 | Cn1c(=O)n([C@@H]2O[C@H](COP(=O)(O)CP(=O)(O)O)[C@@H](O)[C@H]2O)cc/c1=N/OCc1ccc(C(N)=O)cc1 |  |
| 9.36 | Cn1c(=O)n([C@@H]2O[C@H](COP(=O)(O)CP(=O)(O)O)[C@@H](O)[C@H]2O)cc/c1=N/OCc1ccc(Br)cc1 |  |
| 8.80 | Cn1c(=O)n([C@@H]2O[C@H](COP(=O)(O)CP(=O)(O)O)[C@@H](O)[C@H]2O)cc/c1=N/OCc1cccc(Cl)c1 |  |
| 9.29 | Cn1c(=O)n([C@@H]2O[C@H](COP(=O)(O)CP(=O)(O)O)[C@@H](O)[C@H]2O)cc/c1=N/OCc1ccc(S(F)(F)(F)(F)F)cc1 | inhibition [2]: Dose-Dependent Effect; inhibition [3]: Dose-Dependent Effect |
| 8.94 | Cn1c(=O)n([C@@H]2O[C@H](COP(=O)(O)CP(=O)(O)O)[C@@H](O)[C@H]2O)cc/c1=N/OCc1ccc(F)cc1 |  |
| 9.05 | Cc1ccc(CO/N=c2/ccn([C@@H]3O[C@H](COP(=O)(O)CP(=O)(O)O)[C@@H](O)[C@H]3O)c(=O)n2C)cc1 |  |
| 9.07 | COC(=O)c1ccc(CO/N=c2/ccn([C@@H]3O[C@H](COP(=O)(O)CP(=O)(O)O)[C@@H](O)[C@H]3O)c(=O)n2C)cc1 |  |
| 8.97 | Cn1c(=O)n([C@@H]2O[C@H](COP(=O)(O)CP(=O)(O)O)[C@@H](O)[C@H]2O)cc/c1=N/OCc1ccc(C(F)(F)F)cc1 |  |
| 9.36 | Cn1c(=O)n([C@@H]2O[C@H](COP(=O)(O)CP(=O)(O)O)[C@@H](O)[C@H]2O)cc/c1=N/OCc1ccc(I)cc1 | inhibition [2]: Dose-Dependent Effect; inhibition [3]: Dose-Dependent Effect |
| 7.85 | Cn1c(=O)n([C@@H]2O[C@H](COP(=O)(O)CP(=O)(O)O)[C@@H](O)[C@H]2O)cc/c1=N/OCc1ccc(C(=O)O)cc1 |  |
